Laboratory results reported in patent US10736316B2, “Silica particles functionalized and loaded with fungicidal agents, their manufacture and their use as systems of targeted and controlled release of fungicides” (priority 2015, dated 2020).

Assays:
[1] = Analysis of free imazalil in treatment water by HPLC; type: physicochemical; conditions: for [IMZ] free in water: treatment water at the moment of treatment; for Reduction of [IMZ] in water: versus reference treatment water
Method: (§1) 1 ml of test solution of loaded microparticles was filtered through a nylon 0.45 micron syringe filter and later analyzed by HPLC (Agilent 1100 Series).
Chromatographic Conditions:
60% Phosphate buffer pH=2.5, 2 mM
(§2) For the LD treatments, IMZ LD C18 and IMZ LD C12, suspensions of (IMZ)SG-C18-OH and (IMZ)SG-C12-OH at 6 g/l in tap water buffered with 10 mM of sodium etidronate at pH=7.5 was prepared from the concentrated suspensions described in examples 7 and 8. […] As a control, a treatment of bathing in tap water was carried out (CONTROL).
(§3) The reduction of free fungicide in water is calculated as: 100×(concentration of free fungicide in reference treatment water−concentration of free fungicide in LD treatment water)/concentration of free fungicide in reference treatment water. Likewise, the reduction of fungicide residues in fruits is calculated as: 100×(fungicide residues in fruit in reference treatment−fungicide residues in fruit in LD treatment)/fungicide residues in fruit in reference treatment.

[2] = system: Penicillium digitatum; test: Rotting control (RRI) in oranges of Valencia variety inoculated with P. digitatum; type: in vivo; conditions: 7 days at 22° C. and 85% RH
Method: Without previous washing or treatment, fruits from the same batch, receive from field, were randomized in groups of 25. Each treatment was performed with 4 replicates of 25 fruits, which were artificially inoculated on one side by pricking with a punch (2 mm length, 1 mm diameter) previously impregnated in a solution of Penicillium digitatum or Penicillium italicum spores of 5*10^5 cfu/ml and allowed to stand for 17 hours before treatment.
as §2
The 25 fruits of each replicate were bathed using a mesh by immersion for 30 seconds in 10 l of treatment. […] After this time, the number of rotten fruits were counted for each replicate. The effectiveness of the treatments is expressed as % rotting and also as rotting reduction index (RRI, %), which is calculated as: 100×(No. of rotten control fruits−No. of rotten products in the treatment)/No. of rotten fruits in the control.
This experiment was carried out following the same procedure as for examples 9-14. The free pyrimethanil residues in water and virtual were analyzed according to examples 18 and 19. […]

[3] = Analysis of free pyrimethanil in treatment water by HPLC; type: physicochemical; conditions: example 17
Method: as §3
This experiment was carried out following the same procedure as for examples 9-14. The free pyrimethanil residues in water and virtual were analyzed according to examples 18 and 19. For the reference conventional treatment (PIRREF) a solution of pyrimethanil at 525 mg/l in tap water was prepared from a commercial solution at 40% (PENBOTEC). For the LD treatment (PIR LD C18) a suspension of (PIR)SG-C18-OH of 14 g/l in tap water buffered with sodium etidronate 10 mM at pH=7.5 was prepared from the concentrated suspension described in example 16. A 14 g/l suspension correspond to a virtual pyrimethanil concentration contained within the microparticles of 525 mg/l. As a control, a treatment of bathing in tap water was carried out (CONTROL).
as §1
(§4) Chromatographic Conditions: […]

[4] = Analysis of free thiabenzadol in treatment water by HPLC; type: physicochemical; conditions: example 22
Method: as §3
This experiment was carried out following the same procedure as for examples 9-14. The free thiabenzadol residues in water and virtual were analyzed according to examples 23 and 24. For the reference conventional treatment (TBZ REF) a solution of thiabenzadol at 1200 mg/l in tap water was prepared from a commercial solution at 40% (TEXTAR). For the LD treatment (TBZ LD C18) a suspension of (TBZ)SG-C18-OH of 16 g/l in tap water buffered with sodium etidronate 10 mM at pH=7.5 was prepared from the concentrated suspension described in example 21. A 16 g/l suspension correspond to a virtual thiabenzadol concentration contained within the microparticles of 1200 mg/l. As a control, a treatment of bathing in tap water was carried out (CONTROL).
as §1, §4

[5] = treatment water at the moment of treatment
[6] = versus reference treatment water

## imazalil sulfate [IMZ REF]
[1]; example 9
  [IMZ] free in water: 450 mg/L
  Reduction of [IMZ] in water: 0.0%
[1]; example 10
  [IMZ] free in water: 450 mg/L
  Reduction of [IMZ] in water: 0.0%
[1]; example 11
  [IMZ] free in water: 450 mg/L
  Reduction of [IMZ] in water: 0.0%
[1]; example 12
  [IMZ] free in water: 450 mg/L
  Reduction of [IMZ] in water: 0.0%
[1]; example 13
  [IMZ] free in water: 450 mg/L
  Reduction of [IMZ] in water: 0.0%
[1]; example 14
  [IMZ] free in water: 450 mg/L
  Reduction of [IMZ] in water: 0.0%

## Cc1cc(C)nc(Nc2ccccc2)n1 [PIR REF, pyrimethanil]
[2]; example 17, FIG. 16, 14 g/l (PIR)SG-C18-OH in etidronic buffer pH=7.5 or pyrimethanil 525 mg/l
  rotting reduction index (RRI): ~90%
[3]; [5]
  [PIR] free in water: 525 mg/L
[3]; [6]
  Reduction of [PIR] in water: 0.0%

## c1ccc2[nH]c(-c3cscn3)nc2c1 [TBZ REF, thiabenzadol]
[2]; example 22, FIG. 18, 16 g/l (TBZ)SG-C18-OH in etidronic buffer pH=7.5 or thiabenzadol 1200 mg/l
  rotting reduction index (RRI): 100%
[4]; [5]
  [TBZ] free in water: 1200 mg/L
[4]; [6]
  Reduction of [TBZ] in water: 0.0%
